What was measured:
[1] = molecular target: EGFR (Human), P00533 [T790M/L858R]
[2] = molecular target: EGFR (human), P00533 [L858R]
EGFR (human) = EGFR (human) (UniProt P00533)
[3] = molecular target: EGFR (Human), P00533 [Assessment of EGFR-Del T790M Dependent Cell Proliferation in BaF3 Cells]
[4] = molecular target: EGFR (Human), P00533 [T790M/L858R]; details: baf3

Chain of EGFR (human) (P00533 whole entry, looked up): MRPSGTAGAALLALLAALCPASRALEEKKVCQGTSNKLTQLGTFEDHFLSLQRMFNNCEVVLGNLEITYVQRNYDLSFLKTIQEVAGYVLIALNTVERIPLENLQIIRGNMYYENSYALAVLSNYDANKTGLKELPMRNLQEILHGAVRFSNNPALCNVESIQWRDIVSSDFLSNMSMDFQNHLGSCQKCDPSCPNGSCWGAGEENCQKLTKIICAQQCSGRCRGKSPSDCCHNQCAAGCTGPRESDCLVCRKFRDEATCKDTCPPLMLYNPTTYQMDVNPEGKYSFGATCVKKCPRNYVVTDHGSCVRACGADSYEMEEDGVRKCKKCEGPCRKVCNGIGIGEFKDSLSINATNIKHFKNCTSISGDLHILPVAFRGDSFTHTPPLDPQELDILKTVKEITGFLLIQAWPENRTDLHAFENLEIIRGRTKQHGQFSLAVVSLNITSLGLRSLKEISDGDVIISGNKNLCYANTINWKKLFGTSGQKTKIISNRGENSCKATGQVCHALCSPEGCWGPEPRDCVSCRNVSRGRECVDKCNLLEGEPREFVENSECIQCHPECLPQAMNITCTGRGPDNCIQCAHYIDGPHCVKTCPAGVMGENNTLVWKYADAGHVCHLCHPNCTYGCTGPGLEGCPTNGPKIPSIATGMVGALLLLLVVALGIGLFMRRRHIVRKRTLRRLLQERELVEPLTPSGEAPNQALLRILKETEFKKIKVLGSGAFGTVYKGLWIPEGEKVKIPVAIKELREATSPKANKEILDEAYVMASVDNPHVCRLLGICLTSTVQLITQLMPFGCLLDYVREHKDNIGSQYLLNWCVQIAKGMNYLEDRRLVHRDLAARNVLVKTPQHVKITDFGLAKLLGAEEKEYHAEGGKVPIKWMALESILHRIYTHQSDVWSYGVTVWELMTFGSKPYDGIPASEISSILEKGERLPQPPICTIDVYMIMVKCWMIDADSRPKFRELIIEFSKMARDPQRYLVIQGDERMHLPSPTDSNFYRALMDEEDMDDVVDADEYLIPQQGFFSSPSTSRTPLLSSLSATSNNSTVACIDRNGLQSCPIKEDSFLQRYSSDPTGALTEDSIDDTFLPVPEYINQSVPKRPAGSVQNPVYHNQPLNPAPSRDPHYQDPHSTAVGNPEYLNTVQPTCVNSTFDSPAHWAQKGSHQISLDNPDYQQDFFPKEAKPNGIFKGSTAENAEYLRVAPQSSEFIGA
Chain of EGFR (Human), P00533 [Assessment of EGFR-Del T790M Dependent Cell Proliferation in BaF3 Cells] (P00533 whole entry, looked up, stated change not applied): as the sequence (P00533 whole entry, looked up) above
Chain of EGFR (human), P00533 [L858R] (P00533 whole entry L858R, looked up): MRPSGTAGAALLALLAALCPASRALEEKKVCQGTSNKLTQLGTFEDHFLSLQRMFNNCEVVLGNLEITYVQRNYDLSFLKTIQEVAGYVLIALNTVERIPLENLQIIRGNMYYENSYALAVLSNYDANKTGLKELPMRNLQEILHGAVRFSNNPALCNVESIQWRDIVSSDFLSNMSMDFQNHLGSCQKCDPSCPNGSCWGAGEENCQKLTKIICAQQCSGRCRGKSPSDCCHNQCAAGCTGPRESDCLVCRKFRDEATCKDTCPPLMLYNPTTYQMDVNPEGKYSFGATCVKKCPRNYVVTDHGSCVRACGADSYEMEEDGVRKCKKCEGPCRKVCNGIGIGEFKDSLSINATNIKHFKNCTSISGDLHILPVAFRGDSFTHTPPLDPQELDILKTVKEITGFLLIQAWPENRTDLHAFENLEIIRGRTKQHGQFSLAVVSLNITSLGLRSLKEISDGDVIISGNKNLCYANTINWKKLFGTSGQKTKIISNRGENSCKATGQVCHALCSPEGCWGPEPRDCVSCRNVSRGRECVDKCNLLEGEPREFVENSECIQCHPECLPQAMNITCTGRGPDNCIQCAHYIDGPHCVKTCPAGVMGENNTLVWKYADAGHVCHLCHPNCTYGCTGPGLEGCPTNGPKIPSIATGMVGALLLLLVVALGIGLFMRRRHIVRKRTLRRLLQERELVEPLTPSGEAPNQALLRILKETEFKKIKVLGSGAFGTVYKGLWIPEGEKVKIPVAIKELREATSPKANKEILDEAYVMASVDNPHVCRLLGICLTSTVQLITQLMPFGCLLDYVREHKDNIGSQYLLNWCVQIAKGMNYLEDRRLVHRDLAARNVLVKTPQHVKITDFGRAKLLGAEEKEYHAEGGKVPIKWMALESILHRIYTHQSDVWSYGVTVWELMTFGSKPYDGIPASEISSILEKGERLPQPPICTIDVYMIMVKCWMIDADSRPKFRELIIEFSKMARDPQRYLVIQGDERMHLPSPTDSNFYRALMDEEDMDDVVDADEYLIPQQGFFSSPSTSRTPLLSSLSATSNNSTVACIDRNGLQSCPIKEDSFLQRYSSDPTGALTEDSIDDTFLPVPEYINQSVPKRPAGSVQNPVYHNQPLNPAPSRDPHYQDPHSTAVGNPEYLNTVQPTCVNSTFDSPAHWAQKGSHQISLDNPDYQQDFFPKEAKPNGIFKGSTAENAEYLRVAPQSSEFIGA
Chain of EGFR (Human), P00533 [T790M/L858R] (P00533 whole entry T790M/L858R, looked up): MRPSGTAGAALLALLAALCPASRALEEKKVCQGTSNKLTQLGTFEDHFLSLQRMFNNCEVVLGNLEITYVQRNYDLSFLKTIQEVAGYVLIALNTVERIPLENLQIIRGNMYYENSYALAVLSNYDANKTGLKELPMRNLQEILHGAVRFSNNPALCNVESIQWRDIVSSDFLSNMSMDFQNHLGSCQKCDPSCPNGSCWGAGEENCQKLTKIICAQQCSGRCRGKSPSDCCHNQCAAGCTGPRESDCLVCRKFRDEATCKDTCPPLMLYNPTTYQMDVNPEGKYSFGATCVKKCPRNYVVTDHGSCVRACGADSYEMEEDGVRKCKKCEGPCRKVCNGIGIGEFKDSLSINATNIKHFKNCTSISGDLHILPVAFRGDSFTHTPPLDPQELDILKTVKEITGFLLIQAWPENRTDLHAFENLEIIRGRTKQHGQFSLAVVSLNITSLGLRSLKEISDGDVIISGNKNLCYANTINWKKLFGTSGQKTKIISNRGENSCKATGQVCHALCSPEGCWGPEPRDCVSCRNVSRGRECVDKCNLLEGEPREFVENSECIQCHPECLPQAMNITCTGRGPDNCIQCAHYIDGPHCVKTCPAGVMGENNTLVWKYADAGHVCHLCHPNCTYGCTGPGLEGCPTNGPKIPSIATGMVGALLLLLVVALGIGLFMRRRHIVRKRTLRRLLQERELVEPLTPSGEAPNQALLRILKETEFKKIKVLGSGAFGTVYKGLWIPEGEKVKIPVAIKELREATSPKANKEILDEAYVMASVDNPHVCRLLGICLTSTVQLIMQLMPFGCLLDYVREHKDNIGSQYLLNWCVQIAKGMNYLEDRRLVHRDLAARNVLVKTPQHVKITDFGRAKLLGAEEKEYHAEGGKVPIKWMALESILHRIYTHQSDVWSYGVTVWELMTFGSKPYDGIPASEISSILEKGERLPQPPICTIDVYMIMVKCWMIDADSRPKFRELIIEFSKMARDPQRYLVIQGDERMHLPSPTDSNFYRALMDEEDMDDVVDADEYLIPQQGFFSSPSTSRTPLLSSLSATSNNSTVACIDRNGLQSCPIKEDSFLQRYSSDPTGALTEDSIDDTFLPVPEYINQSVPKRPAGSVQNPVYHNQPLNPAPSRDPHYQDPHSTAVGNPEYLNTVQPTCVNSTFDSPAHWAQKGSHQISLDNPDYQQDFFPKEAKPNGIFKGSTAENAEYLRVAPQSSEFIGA

COc1cc(P(C)(C)=O)ccc1Nc1ncc(Cl)c(Oc2cccc(NC(=O)C#CCN(C)C)c2)n1
IC50 [1]: < 50 nM | IC50 [2]: < 50 nM | IC50 (EGFR (human)): < 50 nM | IC50 [3]: 101 to 250 nM

C=CC(=O)Nc1cc(Nc2ncc(Cl)c(Nc3ccccc3P(C)(C)=O)n2)c(OC)cc1N1CCC(N)C1 (stereo not given)
IC50 [1]: < 50 nM | IC50 [2]: < 50 nM | IC50 (EGFR (human)): < 50 nM

C=CC(=O)Nc1ccc(OC)c(Nc2cc(Nc3ccccc3P(C)(C)=O)ncn2)c1
IC50 [1]: 101 to 250 nM | IC50 [2]: < 50 nM | IC50 (EGFR (human)): 50 to 100 nM

CNC(=O)/C=C/C(=O)Nc1ccc(OC)c(Nc2ncc(Cl)c(Nc3ccccc3P(C)(C)=O)n2)c1
IC50 [4]: 101 to 250 nM | IC50 [1]: < 50 nM | IC50 [2]: < 50 nM | IC50 [3]: 50 to 100 nM

C=C(CN1CCS(=O)(=O)CC1)C(=O)Nc1ccc(OC)c(Nc2ncc(Cl)c(Nc3ccccc3P(C)(C)=O)n2)c1
IC50 [1]: < 50 nM | IC50 [2]: 50 to 100 nM

C=CC(=O)Nc1cc(Nc2ncc(Cl)c(Nc3ccccc3P(C)(C)=O)n2)c(OC)cc1C#CCN(CC)CC
IC50 [4]: < 50 nM | IC50 [1]: < 50 nM | IC50 [2]: < 50 nM | IC50 [3]: < 50 nM

CC#CC(=O)Nc1cc(Nc2ncc(Cl)c(Nc3ccccc3P(C)(C)=O)n2)c(OC)cc1OC1COC1
IC50 [4]: 50 to 100 nM | IC50 [1]: 50 to 100 nM | IC50 [2]: < 50 nM | IC50 [3]: < 50 nM

C=CC(=O)Nc1ccc(F)c(Nc2ncc(Cl)c(Nc3ccccc3P(C)(C)=O)n2)c1
IC50 [4]: < 50 nM | IC50 [3]: < 50 nM

C=CC(=O)Nc1cc(Nc2ncc(Cl)c(Nc3ccccc3P(C)(C)=O)n2)c(OC)cc1N1CCC(N2CCC(O)C2)C1 (stereo not given)
IC50 [1]: < 50 nM | IC50 [2]: < 50 nM | IC50 (EGFR (human)): < 50 nM | IC50 [3]: 101 to 250 nM

COc1ccc(NC(=O)CF)cc1Nc1ncc(Cl)c(Nc2ccccc2P(C)(C)=O)n1
IC50 [1]: 101 to 250 nM | IC50 [2]: 50 to 100 nM

C=C(C(=O)Nc1ccc(OC)c(Nc2ncc(Cl)c(Nc3ccccc3P(C)(C)=O)n2)c1)C(F)(F)F
IC50 [1]: < 50 nM | IC50 [2]: < 50 nM | IC50 (EGFR (human)): < 50 nM

C=CC(=O)Nc1cc(Nc2ncc(Cl)c(Nc3ccccc3P(C)(C)=O)n2)c(OC)cc1OC1CN(C)C1
IC50 [4]: 101 to 250 nM | IC50 [3]: 50 to 100 nM

C=CC(=O)Nc1cc(Nc2ncc(Cl)c(Nc3ccccc3P(C)(C)=O)n2)c(OC)cc1N1CCC(N2CCN(CCO)CC2)C1 (stereo not given)
IC50 [1]: < 50 nM | IC50 [2]: < 50 nM | IC50 (EGFR (human)): < 50 nM

COc1ccc(NC(=O)/C=C/C(=O)NCCN(C)C)cc1Nc1ncc(Cl)c(Nc2ccccc2P(C)(C)=O)n1
IC50 [1]: < 50 nM | IC50 [2]: < 50 nM | IC50 (EGFR (human)): < 50 nM

COc1ccc(NC(=O)/C=C/CN2CCCC2)cc1Nc1ncc(Cl)c(Nc2ccccc2P(C)(C)=O)n1
IC50 [1]: < 50 nM | IC50 [2]: < 50 nM | IC50 [3]: 50 to 100 nM

CC#CC(=O)Nc1cc(Nc2ncc(Cl)c(Nc3ccccc3P(C)(C)=O)n2)c(OC)cc1OCCN1CCCC1
IC50 [4]: 101 to 250 nM | IC50 [1]: < 50 nM | IC50 [2]: < 50 nM | IC50 [3]: < 50 nM

COc1ccc(NC(=O)C#Cc2ccccc2)cc1Nc1ncc(Cl)c(Nc2ccccc2P(C)(C)=O)n1
IC50 [4]: < 50 nM | IC50 [1]: < 50 nM | IC50 [2]: < 50 nM | IC50 [3]: < 50 nM

C=CC(=O)Nc1cc(Nc2ncc(Cl)c(Nc3ccccc3P(C)(C)=O)n2)c(OC)cc1OCC1CCN(C)CC1
IC50 [1]: < 50 nM | IC50 [2]: < 50 nM | IC50 (EGFR (human)): 50 to 100 nM | IC50 [3]: 101 to 250 nM

C=CC(=O)Nc1cc(Nc2ncc(Cl)c(Nc3ccccc3P(C)(C)=O)n2)c(OC)cc1OCCN1CCN(C)CC1
IC50 [1]: < 50 nM | IC50 [2]: < 50 nM | IC50 (EGFR (human)): 101 to 250 nM

C=CC(=O)Nc1cc(Nc2ncc(Cl)c(Nc3ccccc3P(C)(C)=O)n2)c(OC)cc1CCN1CCN(C)CC1
IC50 [1]: < 50 nM | IC50 [2]: < 50 nM | IC50 (EGFR (human)): < 50 nM | IC50 [3]: 101 to 250 nM

C=CC(=O)Nc1ccc(OC)c(Nc2ncc(Cl)c(Nc3ccccc3P(C)(C)=O)n2)c1
IC50 [1]: < 50 nM | IC50 [2]: < 50 nM | IC50 [3]: 101 to 250 nM

C=C(CN1CCNC(=O)C1)C(=O)Nc1ccc(OC)c(Nc2ncc(Cl)c(Nc3ccccc3P(C)(C)=O)n2)c1
IC50 [1]: < 50 nM | IC50 [2]: < 50 nM | IC50 (EGFR (human)): < 50 nM | IC50 [3]: 101 to 250 nM

COc1ccc(NC(=O)/C=C/C2(N)CC2)cc1Nc1ncc(Cl)c(Nc2ccccc2P(C)(C)=O)n1
IC50 [1]: < 50 nM | IC50 [2]: < 50 nM | IC50 (EGFR (human)): 101 to 250 nM

C=CC(=O)Nc1cc(Cc2ncc(Cl)c(Nc3ccccc3P(C)(C)=O)n2)c(OC)cc1C#CCN(C)C(C)(C)C
IC50 [1]: < 50 nM | IC50 [2]: < 50 nM | IC50 (EGFR (human)): < 50 nM

C=CC(=O)Nc1ccc(OC)c(Nc2ncc(C#N)c(Nc3ccccc3P(C)(C)=O)n2)c1
IC50 [1]: < 50 nM | IC50 [2]: < 50 nM | IC50 (EGFR (human)): < 50 nM | IC50 [3]: 101 to 250 nM

C=CC(=O)Nc1cc(Nc2ncc(Cl)c(Nc3ccccc3P(C)(C)=O)n2)c(OC)cc1N1CCC(N2CCC(O)CC2)C1 (stereo not given)
IC50 [1]: < 50 nM | IC50 [2]: < 50 nM | IC50 (EGFR (human)): < 50 nM | IC50 [3]: 101 to 250 nM

C=CC(=O)Nc1cc(Nc2ncc(Cl)c(Nc3ccccc3P(C)(C)=O)n2)c(OC)cc1OC1COC1
IC50 [4]: 50 to 100 nM | IC50 [1]: < 50 nM | IC50 [2]: < 50 nM | IC50 [3]: < 50 nM

Reference: the Kinase Knowledgebase extract (Sharma et al. 2016)
